The subject of assay [1] is human leukocytes (basophils). As to the kind of experiment: Inhibition of IgE-mediated histamine release from human leukocytes (basophils), Procedure A. Type of assay: cell-based. The settings on record: Leukocyte, 1 h, read-out: In Vitro Inhibition of Histamine Release IC50 (μM) Procedure A.
Description: A. Procedure for Determining Inhibition of Histamine Release from Human Leukocytes (Basophils)
Separation of Leukocytes: A modification of the method of L. Lichtenstein and A. Osler, J. Exp. Med. 120, 507 (1964) is used. Heparinized human blood (80-100 ml) is mixed with 20 ml of saline (0.2%) containing 0.6 gm of dextrose and 1.2 gm of dextran in propylene centrifuge tubes. The mixture is kept at ambient temperature for 60-90 minutes to allow the separation of erythrocytes from the platelet-leukocyte-rich supernate. The supernate is removed and centrifuged for 8 minutes at 110 ×g in cold. The leukocyte pellet is washed twice with Tris buffer and finally suspended in 150-180 ml Tris-ACM buffer at 1-2 ×10^6 cells/ml.
Reaction Mixture: The reaction is carried out in 12×75 mm plastic tubes at a total volume of 1.23 ml. The reaction medium includes 0.05 ml rabbit anti-human IgE (the antigen), 0.2 ml of the test compound in water at concentrations ranging from 10-100 μM, and 1.0 ml of the leukocyte suspension. The reaction mixture is incubated in a 37° C. shaking water bath for 60 minutes. Upon completion of the reaction, the tubes are centrifuged and the supernatants collected. The protein is removed from the supernatants by precipitation with 0.2 ml of 8% perchloric acid.
Histamine Assay: Histamine release is measured by the automated fluorometric method of W. Siraganian and W. Hook in Chapter 102 of the Manual of Clinical Immunology, 2nd Edition, edited by R. Rose and H. Friedman, published by the American Society for Microbiology, Washington, D.C., 1980. Percent inhibition is calculated as follows: [formula]
The concentration which causes a 50 percent inhibition (IC50) of histamine release is interpolated from a plot of percent inhibition versus logarithm of drug concentration.
Assay [2] deals with rat peritoneal mast cells. As to the kind of experiment: Inhibition of histamine release from rat peritoneal mast cells, Procedure B. Type of assay: cell-based. The following applies: Mast cell, 1 h, read-out: In Vitro Inhibition of Histamine Release IC50 (μM) Procedure B.
Description: B. Procedure for Determining Inhibition of Histamine Release from Rat Peritoneal Mast Cells
Harvest of Peritoneal Mast Cells: After the rats are sacrificed with ether, 20 ml of Minimum Essential Medium (MEM) containing 20 units/ml heparin is injected into the peritoneum. The abdomen is massaged for one minute and the lavage fluid collected. The peritoneal cells are centrifuged at 1800 rpm for 8 minutes in cold. After two washes with Tris A buffer, the cells are resuspended in Tris ACM buffer at 2-4×10^6 cells/ml.
Reaction mixture: The reaction is carried out in 12×75 mm plastic tubes at a total volume of 1.25 ml. The reaction mixture includes 0.5 ml (10-1000 μg) sheep anti-rat IgE or ovalbumin, 0.2 ml of the test compound in water at concentrations ranging from 10-1000 μM, 0.5 ml phosphatidylserine solution (20-60 μg to each tube), and 0.5 ml of cell suspension.
The concentration which causes a 50% inhibition (IC50) of histamine release is computed as in Part A.
Assay [3] relates to guinea pig basophils. Briefly: Inhibition of histamine release from guinea pig basophils, Procedure C. The settings on record: Cavia porcellus, 1 h, read-out: In Vitro Inhibition of Histamine Release IC50 (μM) Procedure C. The format is cell-based. As to the method: C. Procedure for Determining Inhibition of Histamine Release from Guinea Pig Basophils
1. In Vivo Sensitization: Male Hartley guinea pigs (200-300 gm) are immunized on day 0 with two 0.05 ml intradermal injections of 200 μg ovalbumin. Sensitized basophils are available between days 13-25 post-sensitization. This mode of sensitization favors IgE response.
2. Separation of Leukocytes: The method of Lett-Brown et al., Int. Arch. Allergy, Appl. Immun. 64, 241 (1981) is used. Animals are anesthetized with ether and are bled via cardiac puncture, with plastic syringes containing sufficient EDTA to provide a final concentration of 10 mM.
One part of 3% gelatin in saline at 37° C. is mixed with 2 parts of blood in a 16×150 mm tube. The cells are allowed to sediment at a 30° angle for 45 minutes in a 37° C. water bath. The leukocyte-rich plasma is collected and centrifuged at 150×g for 30 minutes at room temperature. The pelleted cells are washed in Hepes-buffered saline (HG) containing 4 mM EDTA and resuspended in Hepes-buffered saline containing […] and Ca^++ (HGCM) at 4-5×10^6 cells/ml.
3. Reaction Mixture: The reaction is carried out in 12×75 mm plastic tubes and a total volume of 1.2 ml which includes 0.5 ml of antigen, 0.2 ml of drug solution at concentrations ranging from 10-1000 μM and 0.5 ml of prewashed cell suspension. The reaction mixture is incubated in a 37° C. shaking water bath for 60 minutes. Upon completion of the reaction, the tubes are centrifuged and the supernatants collected. The protein is removed from the supernatants by precipitation with 0.2 ml of 8% perchloric acid.
4. Histamine Assay: Histamine release is measured by the automated fluorometric method of Siraganian, supra. The concentration which causes a 50 percent inhibition of histamine release is computed as in Part A.

For assay [4], the target named is T1, histamine (H1) receptor (Cavia porcellus, UniProt P31389).
T1 construct: contraction of isolated guinea pig ileum; from tissue; host or cells: isolated guinea pig ileum
Briefly: Antagonism of histamine-induced contraction of isolated guinea pig ileum. The format is tissue-based. The settings on record: histamine final concentration 0.2 μg/ml, 50% reduction of contractile response, read-out: Inhibition IC50 (μM) of histamine-induced contraction. The text has this: Certain compounds of formula I inhibit in vitro the histamine-induced contraction of isolated guinea pig ileum and are useful in warm-blooded animals for antagonizing the action of histamine at the histamine (H1) receptor. Accordingly, these compounds can be employed in a conventional manner as antihistamine agents for the treatment of allergic disorders, for example allergic rhinitis, vasomotor rhinitis, allergic conjunctivitis, hay fever, urticaria, and food allergies.
The antagonism of the effects of histamine on the contraction of isolated guinea pig ileum by the compounds of formula I can be determined by the procedure of G. Possanza, A. Bauen, and P. Stewart, Int. Arch. Allergy Appl. Immunol., 49, 289 (1975). The degree of inhibition is determined as the difference between the contraction caused by histamine (final concentration 0.2 μg/ml) alone and that seen in the presence of both histamine and the test compound. The inhibitory activity of the test compound is expressed as that concentration of the compound which causes a 50% reduction of the contractile response (IC50).

The mark [5] stands for this setting: from human basophils, rabbit anti-human IgE as antigen, 60 min at 37° C., > = no response detected at highest dose indicated.
[6] abbreviates: from rat peritoneal mast cells, sheep anti-rat IgE or ovalbumin, 60 min at 37° C.
[7] abbreviates: from guinea pig basophils (ovalbumin-sensitized), 60 min at 37° C., > = no response detected at highest dose indicated.

Values joined by “and” are separate entries in the source; they are usually repeats but may differ in a detail not shown here. Equal entries are not always repeated. Structures can show the parent of a compound that is named as a salt. Where two headings read alike, the source gives them in different places. Where only a bound is given, the exact number is not on record here.

T1 sequence (P31389 whole entry): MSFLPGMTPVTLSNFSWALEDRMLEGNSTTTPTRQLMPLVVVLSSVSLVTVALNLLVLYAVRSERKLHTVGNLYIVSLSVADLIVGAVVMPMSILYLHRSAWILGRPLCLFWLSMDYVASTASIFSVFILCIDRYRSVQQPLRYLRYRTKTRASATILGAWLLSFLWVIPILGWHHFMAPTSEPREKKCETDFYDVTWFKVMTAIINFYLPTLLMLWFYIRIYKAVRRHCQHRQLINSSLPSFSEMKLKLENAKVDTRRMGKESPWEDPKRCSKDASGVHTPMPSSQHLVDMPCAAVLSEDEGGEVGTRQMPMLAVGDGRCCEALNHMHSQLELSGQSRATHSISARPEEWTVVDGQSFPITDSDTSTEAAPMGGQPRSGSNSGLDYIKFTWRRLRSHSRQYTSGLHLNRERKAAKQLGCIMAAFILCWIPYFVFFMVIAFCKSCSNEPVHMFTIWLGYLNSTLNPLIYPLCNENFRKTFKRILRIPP

Regarding `O=C(NC1CCCCC1)SCCCN1CCN(Cc2ccc(Cl)cc2)CC1` [Example 6, N-Cyclohexyl-S-{3-[4-(4-chlorobenzyl)piperazin-1-yl]propyl}thiocarbamate dihydrochloride], the half-maximal inhibitory concentration (IC50) (as a rule, the point on the concentration scale where inhibition reaches its midpoint) in assay [1] (setting [5]) came out at 5 µM; in assay [2] (setting [6]) it was 3 µM; in assay [3] (setting [7]), 20 µM; in assay [4], 0.06 µM.
As to `O=C(Nc1ccccc1)SCCCN1CCN(Cc2ccc(Cl)cc2)CC1` [Example 7, N-Phenyl-S-{3-[4-(4-chlorobenzyl)piperazin-1-yl]propyl}thiocarbamate dihydrochloride], the figures for the half-inhibitory concentration (IC50) in assay [1] (setting [5]), in assay [2] (setting [6]) and in assay [3] (setting [7]) were 2.6 µM, 3 µM and 13 µM, respectively.
For `SCCCN1CCN(CCc2ccc(Cl)cc2)CC1` [Example 25, 3-[4-(4-Chlorophenethyl)piperazin-1-yl]propanethiol dihydrochloride], the concentration for half-maximal inhibition (IC50) in assay [1] (setting [5]) is 5 µM; in assay [2] (setting [6]) it was 4 µM; in assay [3] (setting [7]), 5 µM.
On to `COc1ccc(NC(=O)SCCCN2CCN(CCc3ccc(Cl)cc3)CC2)cc1` [Example 28, N-(4-Methoxyphenyl)-S-{3-[4-(4-chlorophenethyl)piperazin-1-yl]propyl}thiocarbamate dihydrochloride], for which the IC50 in assay [1] (setting [5]) is 5 µM; in assay [2] (setting [6]), 7 µM; in assay [3] (setting [7]), 40 µM; in assay [4], 0.12 µM and 0.09 µM.
With `CCCCc1ccc(NC(=O)SCCCN2CCN(CCCc3ccc(Cl)cc3)CC2)cc1` [Example 33, N-(4-n-Butylphenyl)-S-{3-[4-[3-(4-chlorophenyl)propyl]piperazin-1-yl]propyl}thiocarbamate dihydrochloride], the IC50 came out at 5 µM in assay [1] (setting [5]), 2 µM in assay [2] (setting [6]) and 14 µM in assay [3] (setting [7]).
Take `SCCN1CCN(Cc2ccc(Cl)cc2)CC1` [Example 36, 2-[4-(4-Chlorobenzyl)piperazin-1-yl]ethanethiol dihydrochloride]: the IC50 is 3 µM in assay [1] (Homo sapiens), 5 µM in assay [2] (Rattus norvegicus) and over 100 µM in assay [3].

The values are drawn from patent US4618677A, “Substituted phenylalkyl-(piperazinyl or homopiperazinyl)alkyl-thiols and -thiocarbamates useful for the treatment of immunological, inflammatory, and allergic disorders” (Boehringer Ingelheim Limited, priority 1984, dated 1986).
